Experimental data reported in US20100004234A1, “SPECIFIC KINASE INHIBITORS” (Kosan Biosciences Incorporated, priority 2004, published 2010).
Read-outs that look alike come from different tables or passages of the source.

Tests used:
PDGFRβ = PDGFRβ (Homo sapiens, UniProt P09619); test: Time-dependent kinase inhibition kinetics (progress curve); assay type: biochemical
Experimental: (§1) Typically, one measures the increase in inhibition of protein kinase activity in the presence of inhibitor over time. In one method, aliquots of a “pre-incubation” reaction mixture containing enzyme and inhibitor are assayed for activity (initial velocities) over time; increased inhibition or decreased initial velocities will be observed over time as the Michael adduct forms (Walsh, C, Enzyme Reaction Mechanisms, W.H. Freeman & Co., 1979, pp 86-94). In a second method, the time dependent loss of activity is measured as “progress curves” that measure and analyze product formed (e.g. ADP) versus time (Morrison & Walsh, Adv. Enzymol Relat Areas Mol. Biol. 1988, 61, 201-301). In either case, the time dependent inactivation can be dampened by the presence of a competing substrate, in this case ATP.
(§2) For covalent inhibitors, plots of log (activity) versus time provide apparent first-order rate constants (kobsd) of enzyme activity loss. If these assays are performed at varying concentrations of inhibitor, a series of first-order plots is obtained and kobsd obtained at each inhibitor concentration. To measure time-dependent inhibition using the “progress-curve method” (see references cited above and Kuzmic et al., Methods Enzymol 2004; 383: 366-81), ERK (or other kinase) is treated with varying amounts of the lactone inhibitor, and the formation of ADP is measured continuously by a coupled assay. […] Such molecules may be competitive inhibitors but should not show time-dependent inactivation.
(§3) Those of skill in the art will recognize that within the set of compounds useful in the methods of the invention, significant variability in specificity can be achieved, allowing one to identify optimal compounds for different applications. Inhibition progress curve analysis was performed using continuous, colorimetric, or fluorimetric assays. All experiments were done at 1 mM ATP, with the exception of KDR (at 5 mM ATP).
(§4) MEK1 assays were performed using pre-incubation experiments with radioactive [^32P]ATP and filter binding of product. All other kinases were analyzed using progress curve analysis from a continuous spectrophotometric assay.

Flt-1 (VEGFR1) = Flt-1 (VEGFR1) (Homo sapiens, UniProt P17948); test: as above; assay type: biochemical
Chain of Flt-1 (VEGFR1) (P17948 27-1338): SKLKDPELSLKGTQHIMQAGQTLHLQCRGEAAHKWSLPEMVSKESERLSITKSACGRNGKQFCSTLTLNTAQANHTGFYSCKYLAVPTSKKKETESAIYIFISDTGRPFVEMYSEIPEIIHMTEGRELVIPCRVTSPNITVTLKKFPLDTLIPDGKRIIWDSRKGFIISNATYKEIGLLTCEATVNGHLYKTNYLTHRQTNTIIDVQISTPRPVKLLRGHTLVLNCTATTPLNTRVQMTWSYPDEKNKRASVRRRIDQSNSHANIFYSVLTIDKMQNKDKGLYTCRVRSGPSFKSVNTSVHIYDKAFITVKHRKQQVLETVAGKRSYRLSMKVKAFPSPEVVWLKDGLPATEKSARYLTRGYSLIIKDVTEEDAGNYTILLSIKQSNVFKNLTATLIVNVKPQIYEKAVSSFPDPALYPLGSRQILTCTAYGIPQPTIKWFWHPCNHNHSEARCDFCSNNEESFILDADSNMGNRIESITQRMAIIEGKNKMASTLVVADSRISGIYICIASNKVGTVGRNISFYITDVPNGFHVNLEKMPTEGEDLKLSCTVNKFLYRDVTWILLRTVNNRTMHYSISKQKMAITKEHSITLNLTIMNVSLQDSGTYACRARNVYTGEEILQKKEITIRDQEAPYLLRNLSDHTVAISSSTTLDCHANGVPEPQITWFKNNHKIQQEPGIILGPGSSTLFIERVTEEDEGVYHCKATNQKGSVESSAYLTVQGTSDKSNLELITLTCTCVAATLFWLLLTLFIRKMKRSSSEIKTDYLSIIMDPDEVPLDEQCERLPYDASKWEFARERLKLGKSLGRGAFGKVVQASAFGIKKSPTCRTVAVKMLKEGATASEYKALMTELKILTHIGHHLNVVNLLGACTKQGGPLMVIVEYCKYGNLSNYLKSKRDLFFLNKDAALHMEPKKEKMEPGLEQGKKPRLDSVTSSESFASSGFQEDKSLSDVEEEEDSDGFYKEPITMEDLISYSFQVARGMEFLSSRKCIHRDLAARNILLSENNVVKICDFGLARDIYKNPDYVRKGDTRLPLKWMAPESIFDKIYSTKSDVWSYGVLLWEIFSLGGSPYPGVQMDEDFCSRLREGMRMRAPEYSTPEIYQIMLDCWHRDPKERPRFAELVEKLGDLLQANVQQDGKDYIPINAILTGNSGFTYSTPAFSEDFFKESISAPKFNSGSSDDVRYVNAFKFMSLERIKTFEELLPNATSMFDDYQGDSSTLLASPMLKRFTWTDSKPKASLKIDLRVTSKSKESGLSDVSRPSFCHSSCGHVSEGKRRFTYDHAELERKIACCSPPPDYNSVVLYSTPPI
Experimental: as §1, §2, §3, §4

KDR (VEGFR2) = KDR (VEGFR2) (Homo sapiens, UniProt P35968); test: as above; assay type: biochemical
Chain of KDR (VEGFR2) (P35968 20-1356): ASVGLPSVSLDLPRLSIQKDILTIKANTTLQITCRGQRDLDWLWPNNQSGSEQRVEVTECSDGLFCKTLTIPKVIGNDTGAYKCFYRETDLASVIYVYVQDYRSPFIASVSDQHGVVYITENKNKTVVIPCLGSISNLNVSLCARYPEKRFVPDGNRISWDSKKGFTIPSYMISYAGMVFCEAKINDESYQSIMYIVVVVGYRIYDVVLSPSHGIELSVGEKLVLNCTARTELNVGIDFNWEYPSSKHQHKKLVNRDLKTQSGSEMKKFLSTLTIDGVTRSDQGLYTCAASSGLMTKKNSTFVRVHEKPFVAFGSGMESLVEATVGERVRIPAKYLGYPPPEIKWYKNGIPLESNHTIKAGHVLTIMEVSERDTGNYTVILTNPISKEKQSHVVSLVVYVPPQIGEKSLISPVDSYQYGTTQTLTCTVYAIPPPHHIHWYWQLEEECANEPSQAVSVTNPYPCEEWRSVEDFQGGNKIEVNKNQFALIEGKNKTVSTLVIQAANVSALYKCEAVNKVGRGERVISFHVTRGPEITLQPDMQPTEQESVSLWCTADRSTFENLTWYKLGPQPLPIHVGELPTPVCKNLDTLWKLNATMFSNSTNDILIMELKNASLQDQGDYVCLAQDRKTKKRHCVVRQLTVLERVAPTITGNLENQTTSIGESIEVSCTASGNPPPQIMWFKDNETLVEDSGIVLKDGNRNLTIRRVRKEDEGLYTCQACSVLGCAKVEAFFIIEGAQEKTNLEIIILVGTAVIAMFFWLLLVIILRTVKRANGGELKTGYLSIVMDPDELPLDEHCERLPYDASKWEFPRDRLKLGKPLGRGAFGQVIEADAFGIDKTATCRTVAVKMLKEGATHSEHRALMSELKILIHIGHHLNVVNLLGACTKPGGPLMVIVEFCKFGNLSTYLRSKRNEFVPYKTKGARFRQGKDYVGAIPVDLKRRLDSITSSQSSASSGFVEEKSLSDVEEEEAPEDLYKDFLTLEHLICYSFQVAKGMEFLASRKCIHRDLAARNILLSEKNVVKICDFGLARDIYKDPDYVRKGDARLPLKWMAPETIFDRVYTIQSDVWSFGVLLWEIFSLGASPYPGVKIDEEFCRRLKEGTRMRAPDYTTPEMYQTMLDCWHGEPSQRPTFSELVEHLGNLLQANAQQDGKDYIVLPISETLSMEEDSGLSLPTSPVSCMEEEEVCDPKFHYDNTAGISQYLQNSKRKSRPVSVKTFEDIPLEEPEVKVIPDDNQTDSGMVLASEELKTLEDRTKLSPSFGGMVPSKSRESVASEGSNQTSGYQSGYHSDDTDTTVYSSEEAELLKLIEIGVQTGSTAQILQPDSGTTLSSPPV
Experimental: as §1, §2, §3, §4

TrkB = TrkB (Homo sapiens, UniProt Q16620); test: as above; assay type: biochemical
Chain of TrkB (Q16620 32-822): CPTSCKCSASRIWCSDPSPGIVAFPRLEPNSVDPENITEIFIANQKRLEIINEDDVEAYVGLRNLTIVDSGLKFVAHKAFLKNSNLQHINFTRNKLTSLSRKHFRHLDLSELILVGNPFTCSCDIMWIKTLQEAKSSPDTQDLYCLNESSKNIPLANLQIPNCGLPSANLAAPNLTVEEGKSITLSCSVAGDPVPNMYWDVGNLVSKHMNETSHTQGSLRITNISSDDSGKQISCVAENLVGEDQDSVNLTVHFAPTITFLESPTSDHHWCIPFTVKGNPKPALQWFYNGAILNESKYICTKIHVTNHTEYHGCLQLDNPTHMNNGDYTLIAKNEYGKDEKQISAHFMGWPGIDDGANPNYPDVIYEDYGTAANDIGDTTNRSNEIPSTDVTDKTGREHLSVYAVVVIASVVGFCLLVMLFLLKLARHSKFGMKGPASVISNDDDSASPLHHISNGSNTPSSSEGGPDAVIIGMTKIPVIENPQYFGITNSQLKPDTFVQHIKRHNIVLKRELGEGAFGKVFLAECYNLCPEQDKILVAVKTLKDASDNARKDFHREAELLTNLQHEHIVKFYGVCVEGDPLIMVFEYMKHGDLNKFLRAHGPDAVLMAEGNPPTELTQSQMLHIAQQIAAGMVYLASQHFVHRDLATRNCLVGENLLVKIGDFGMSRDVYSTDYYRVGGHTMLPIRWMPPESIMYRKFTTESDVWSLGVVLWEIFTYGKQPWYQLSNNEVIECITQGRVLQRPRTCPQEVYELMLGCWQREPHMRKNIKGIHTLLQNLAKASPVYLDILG
Experimental: as §1, §2, §3, §4

GSK3α = GSK3α (Homo sapiens, UniProt P49840); test: as above; assay type: biochemical
Chain of GSK3α (P49840 whole entry): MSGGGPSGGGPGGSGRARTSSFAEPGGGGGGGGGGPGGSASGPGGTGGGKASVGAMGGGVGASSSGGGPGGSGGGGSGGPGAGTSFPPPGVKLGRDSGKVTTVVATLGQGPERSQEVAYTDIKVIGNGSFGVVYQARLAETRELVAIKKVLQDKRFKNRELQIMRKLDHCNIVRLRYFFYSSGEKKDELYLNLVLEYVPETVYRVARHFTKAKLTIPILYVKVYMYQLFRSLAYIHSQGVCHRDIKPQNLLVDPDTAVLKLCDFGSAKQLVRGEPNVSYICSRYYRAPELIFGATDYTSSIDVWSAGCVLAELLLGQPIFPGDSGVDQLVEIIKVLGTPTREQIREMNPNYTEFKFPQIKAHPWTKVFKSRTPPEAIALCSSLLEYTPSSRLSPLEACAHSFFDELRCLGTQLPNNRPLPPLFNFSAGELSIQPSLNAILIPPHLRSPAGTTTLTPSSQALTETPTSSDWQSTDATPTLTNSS
Experimental: as §1, §2, §3, §4

Flt-3 = target: T1, Flt-3 (Homo sapiens, UniProt P36888); test: as above; assay type: biochemical
T1 sequence (P36888 27-993): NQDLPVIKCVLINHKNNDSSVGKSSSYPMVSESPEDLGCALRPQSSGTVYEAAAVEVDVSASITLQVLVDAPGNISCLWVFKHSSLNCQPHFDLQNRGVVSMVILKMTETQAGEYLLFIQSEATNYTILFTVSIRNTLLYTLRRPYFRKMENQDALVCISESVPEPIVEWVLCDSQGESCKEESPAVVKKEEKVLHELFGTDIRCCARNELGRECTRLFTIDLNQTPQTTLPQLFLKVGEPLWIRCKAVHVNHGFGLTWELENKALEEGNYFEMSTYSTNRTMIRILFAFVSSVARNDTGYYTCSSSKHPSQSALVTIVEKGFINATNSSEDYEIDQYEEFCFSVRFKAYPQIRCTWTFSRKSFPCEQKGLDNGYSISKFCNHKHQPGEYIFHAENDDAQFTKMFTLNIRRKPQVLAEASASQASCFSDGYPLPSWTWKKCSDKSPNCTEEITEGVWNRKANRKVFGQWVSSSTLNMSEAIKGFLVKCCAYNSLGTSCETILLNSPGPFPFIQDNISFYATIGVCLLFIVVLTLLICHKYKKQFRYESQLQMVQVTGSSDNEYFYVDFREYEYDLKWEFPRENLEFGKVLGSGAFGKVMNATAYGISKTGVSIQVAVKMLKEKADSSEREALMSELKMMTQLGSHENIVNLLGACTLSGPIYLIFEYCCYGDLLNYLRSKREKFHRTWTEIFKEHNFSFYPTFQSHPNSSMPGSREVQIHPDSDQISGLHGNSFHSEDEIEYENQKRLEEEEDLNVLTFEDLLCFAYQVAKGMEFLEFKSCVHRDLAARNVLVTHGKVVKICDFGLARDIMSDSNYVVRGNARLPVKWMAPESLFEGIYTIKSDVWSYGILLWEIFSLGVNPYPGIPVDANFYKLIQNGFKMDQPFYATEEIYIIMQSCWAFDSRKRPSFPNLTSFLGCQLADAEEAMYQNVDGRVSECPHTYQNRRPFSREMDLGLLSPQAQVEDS
Experimental: as §1, §2, §3, §4

[1] = system: HT29 (Human colon, B-Raf V599E); test: Cell proliferation assay (Cell Titer Glo); assay type: cell-based
Experimental: (§5) In one illustrative method, cells are treated with various concentrations of the inhibitor in 96 well plates, incubated at 37° C./5% CO2 for three days, and analyzed using the Cell Titer Glo kit (Promega).
(§6) COLO829 is a human melanoma cell line. HT29 is a human colon cancer cell line. Both cell lines have a V600E B-Raf mutation. SKOV3 is an ovarian cancer cell line having wild-type B-Raf. EKR2 (extra-cellular signal regulated kinase 2) is a kinase in the Ras/B-Raf MAP kinase cascade pathway.

[2] = system: COLO829 (Human melanoma, B-Raf V599E); test: Cell proliferation assay (Cell Titer Glo); assay type: cell-based
Experimental: as §5, §6

Chain of PDGFRβ (P09619 33-1106): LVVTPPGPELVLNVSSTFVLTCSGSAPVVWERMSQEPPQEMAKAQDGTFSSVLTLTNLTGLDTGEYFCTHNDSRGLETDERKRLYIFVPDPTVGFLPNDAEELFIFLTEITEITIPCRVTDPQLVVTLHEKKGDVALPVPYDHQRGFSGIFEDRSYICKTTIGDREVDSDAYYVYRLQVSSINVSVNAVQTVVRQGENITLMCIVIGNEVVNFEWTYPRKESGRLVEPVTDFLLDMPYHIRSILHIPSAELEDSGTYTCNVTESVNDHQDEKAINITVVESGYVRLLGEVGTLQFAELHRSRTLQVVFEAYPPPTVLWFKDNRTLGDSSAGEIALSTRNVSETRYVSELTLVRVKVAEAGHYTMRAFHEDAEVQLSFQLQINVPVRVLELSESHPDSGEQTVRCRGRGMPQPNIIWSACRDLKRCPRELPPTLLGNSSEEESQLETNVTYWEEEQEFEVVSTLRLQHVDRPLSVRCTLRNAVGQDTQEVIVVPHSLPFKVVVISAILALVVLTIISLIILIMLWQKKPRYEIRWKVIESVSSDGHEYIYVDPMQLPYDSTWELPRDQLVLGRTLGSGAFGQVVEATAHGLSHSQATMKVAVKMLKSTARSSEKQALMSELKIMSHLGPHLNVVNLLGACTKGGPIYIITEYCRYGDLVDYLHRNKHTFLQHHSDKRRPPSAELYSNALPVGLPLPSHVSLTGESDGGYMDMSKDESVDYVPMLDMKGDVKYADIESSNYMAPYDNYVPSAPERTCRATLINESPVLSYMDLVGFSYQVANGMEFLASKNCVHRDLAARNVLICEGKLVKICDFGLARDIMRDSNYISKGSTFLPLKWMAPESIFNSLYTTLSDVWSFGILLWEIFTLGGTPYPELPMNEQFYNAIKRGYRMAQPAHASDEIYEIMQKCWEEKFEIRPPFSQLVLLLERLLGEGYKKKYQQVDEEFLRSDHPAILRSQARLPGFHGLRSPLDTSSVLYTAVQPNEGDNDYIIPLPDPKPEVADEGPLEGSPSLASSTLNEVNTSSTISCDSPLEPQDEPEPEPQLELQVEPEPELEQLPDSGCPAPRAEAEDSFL

SMILES: COc1cc(O)c2c(c1)[C@H]1O[C@@H]1C[C@H](O)[C@H](O)C(=O)/C=C\C[C@H](C)OC2=O [Hypothemycin, hypothemycin]
- kinact/KI (PDGFRβ): 2500 M⁻¹ s⁻¹
- Ki (PDGFRβ; 1 mM ATP): 1200 nM
- kinact (PDGFRβ; 1 mM ATP): 0.003 s⁻¹
- kinact/KI (Flt-1 (VEGFR1)): 160000 M⁻¹ s⁻¹
- kinact (Flt-1 (VEGFR1); 1 mM ATP): 0.018 s⁻¹
- Ki (Flt-1 (VEGFR1); 1 mM ATP, significant decrease of enzyme activity over time without inhibitor): 110 nM
- Ki (KDR (VEGFR2); KDR): 10 nM
- kinact/KI (KDR (VEGFR2); KDR): 500000 M⁻¹ s⁻¹
- kinact/Ki (KDR (VEGFR2); KDR (VEGFR2)): 500000 M⁻¹ s⁻¹
- Ki (KDR (VEGFR2); KDR (VEGFR2), 5 mM ATP): 14 nM
- kinact (KDR (VEGFR2); KDR (VEGFR2), 5 mM ATP): 0.007 s⁻¹
- KDR activity inhibited (KDR (VEGFR2); calculated for 0.1 μM for ~10 minutes): > 98%
- Ki (TrkB; TRKB, reversible inhibition competitive with ATP): 370 nM
- kinact/Ki (TrkB; TrkB): None
- time-dependent inactivation (covalent bond formation) (TrkB; TrkB): did not show time-dependent inactivation
- kinact (TrkB; TrkB, 1 mM ATP): None
- Ki (GSK3α): > 630000 nM
- kinact/KI (Flt-3): 47000 M⁻¹ s⁻¹
- Ki (Flt-3; 1 mM ATP): 150 nM
- kinact (Flt-3; 1 mM ATP): 0.007 s⁻¹
- IC50 ([1]; HT-29, Table 7, HT29 human colon cancer, V600E B-Raf, read-out: Cell Line IC50 HT29): 240 ± 170 nM
- IC50 ([1]; Homo sapiens, HT-29, read-out: Kinase Inhibitor IC50): 100 nM
- IC50 ([2]; COLO-829, Table 7, COLO829 human melanoma, V600E B-Raf, read-out: Cell Line IC50 COLO829): 73 ± 17 nM
- GI50 ([2]; Homo sapiens, COLO-829): 50 nM
- IC50 ([2]; Homo sapiens, COLO-829, read-out: Kinase Inhibitor IC50): 89 nM
